# From PubChem BioAssay (NCI)
#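 Interpolation was linear, between the two tested concentrations surrounding the appropriate level; five concentrations were tested over 48 hours in 96-well plates. GI50: concentration for 50% inhibition of growth. TGI: concentration producing complete growth inhibition.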
# Experiments:
# Assay in all cases: growth of human tumour cells (NCI), 48 h
# [1] = test system: 786-0 renal
# [2] = test system: A498 renal
# [3] = test system: A549 NSCLC
# [4] = test system: ACHN renal
# [5] = test system: BT-549 breast
# [6] = test system: CAKI-1 renal
# [7] = test system: CCRF-CEM leukemia
# [8] = test system: COLO 205 colon
# [9] = test system: DU-145 prostate
# [10] = test system: EKVX NSCLC
# [11] = test system: HCC-2998 colon
# [12] = test system: HCT-116 colon
# [13] = test system: HCT-15 colon
# [14] = test system: HL-60(TB) leukemia
# [15] = test system: HOP-62 NSCLC
# [16] = test system: HS 578T breast
# [17] = test system: HT29 colon
# [18] = test system: IGROV1 ovarian
# [19] = test system: K-562 leukemia
# [20] = test system: KM12 colon
# [21] = test system: LOX IMVI melanoma
# [22] = test system: M14 melanoma
# [23] = test system: MALME-3M melanoma
# [24] = test system: MCF7 breast
# [25] = test system: MDA-MB-231 breast
# [26] = test system: MDA-MB-435
# [27] = test system: MOLT-4 leukemia
# [28] = test system: NCI-H226 lung
# [29] = test system: NCI-H23 lung
# [30] = test system: NCI-H460 lung
# [31] = test system: NCI-H522 lung
# [32] = test system: NCI/ADR-RES ovarian
# [33] = test system: OVCAR-3 ovarian
# [34] = test system: OVCAR-4 ovarian
# [35] = test system: OVCAR-5 ovarian
# [36] = test system: OVCAR-8 ovarian
# [37] = test system: PC-3 prostate
# [38] = test system: RXF 393 renal
# [39] = test system: SF-268 CNS
# [40] = test system: SF-295 CNS
# [41] = test system: SF-539 CNS
# [42] = test system: SK-MEL-2 melanoma
# [43] = test system: SK-MEL-28 melanoma
# [44] = test system: SK-MEL-5 melanoma
# [45] = test system: SK-OV-3 ovarian
# [46] = test system: SN12C renal
# [47] = test system: SNB-19 CNS
# [48] = test system: SNB-75 CNS
# [49] = test system: SR leukemia
# [50] = test system: SW-620 colon
# [51] = test system: T-47D breast
# [52] = test system: TK-10 renal
# [53] = test system: U251 CNS
# [54] = test system: UACC-257 melanoma
# [55] = test system: UACC-62 melanoma
# [56] = test system: UO-31 renal
# [57] = test system: RPMI-8226 leukemia
smiles,measurement,setting,value
CC1(C)N=C(N)N=C(N)N1c1cccc(CC(=O)Nc2ccccc2)c1,GI50,[1],78.5 µM
same,TGI,[1],> 100 µM
same,GI50,[2],22.8 µM
same,TGI,[2],> 100 µM
same,GI50,[3],3.54 µM
same,TGI,[3],> 100 µM
same,GI50,[4],> 100 µM
same,TGI,[4],> 100 µM
same,GI50,[5],45.1 µM
same,TGI,[5],> 100 µM
same,GI50,[6],> 100 µM
same,TGI,[6],> 100 µM
same,GI50,[7],18.2 µM
same,TGI,[7],> 100 µM
same,GI50,[8],47.3 µM
same,TGI,[8],> 100 µM
same,GI50,[9],12.7 µM
same,TGI,[9],> 100 µM
same,GI50,[10],> 100 µM
same,TGI,[10],> 100 µM
same,GI50,[11],24 µM
same,TGI,[11],> 100 µM
same,GI50,[12],4.28 µM
same,TGI,[12],> 100 µM
same,GI50,[13],> 100 µM
same,TGI,[13],> 100 µM
same,GI50,[14],6 µM
same,TGI,[14],> 100 µM
same,GI50,[15],53.4 µM
same,TGI,[15],> 100 µM
same,GI50,[16],11.5 µM
same,TGI,[16],73.2 µM
same,GI50,[17],2.35 µM
same,TGI,[17],> 100 µM
same,GI50,[18],8.48 µM
same,TGI,[18],> 100 µM
same,GI50,[19],2.87 µM
same,TGI,[19],> 100 µM
same,GI50,[20],15.1 µM
same,TGI,[20],> 100 µM
same,GI50,[21],4.41 µM
same,TGI,[21],> 100 µM
same,GI50,[22],40.2 µM
same,TGI,[22],> 100 µM
same,GI50,[23],58.6 µM
same,TGI,[23],> 100 µM
same,GI50,[24],7.56 µM
same,TGI,[24],> 100 µM
same,GI50,[25],> 100 µM
same,TGI,[25],> 100 µM
same,GI50,[26],4.38 µM
same,TGI,[26],> 100 µM
same,GI50,[27],25.2 µM
same,TGI,[27],> 100 µM
same,GI50,[28],> 100 µM
same,TGI,[28],> 100 µM
same,GI50,[29],14.8 µM
same,TGI,[29],> 100 µM
same,GI50,[30],3.63 µM
same,TGI,[30],> 100 µM
same,GI50,[31],47.5 µM
same,TGI,[31],> 100 µM
same,GI50,[32],> 100 µM
same,TGI,[32],> 100 µM
same,GI50,[33],32.1 µM
same,TGI,[33],> 100 µM
same,GI50,[34],81.8 µM
same,TGI,[34],> 100 µM
same,GI50,[35],> 100 µM
same,TGI,[35],> 100 µM
same,GI50,[36],76.8 µM
same,TGI,[36],> 100 µM
same,GI50,[37],0.895 µM
same,TGI,[37],> 100 µM
same,GI50,[38],> 100 µM
same,TGI,[38],> 100 µM
same,GI50,[39],1.35 µM
same,TGI,[39],> 100 µM
same,GI50,[40],30.6 µM
same,TGI,[40],> 100 µM
same,GI50,[41],10.5 µM
same,TGI,[41],> 100 µM
same,GI50,[42],> 100 µM
same,TGI,[42],> 100 µM
same,GI50,[43],9.15 µM
same,TGI,[43],77 µM
same,GI50,[44],4.44 µM
same,TGI,[44],> 100 µM
same,GI50,[45],> 100 µM
same,TGI,[45],> 100 µM
same,GI50,[46],4.84 µM
same,TGI,[46],> 100 µM
same,GI50,[47],39.7 µM
same,TGI,[47],> 100 µM
same,GI50,[48],15.4 µM
same,TGI,[48],> 100 µM
same,GI50,[49],2.53 µM
same,TGI,[49],> 100 µM
same,GI50,[50],4.56 µM
same,TGI,[50],> 100 µM
same,GI50,[51],> 100 µM
same,TGI,[51],> 100 µM
same,GI50,[52],> 100 µM
same,TGI,[52],> 100 µM
same,GI50,[53],4.96 µM
same,TGI,[53],> 100 µM
same,GI50,[54],> 100 µM
same,TGI,[54],> 100 µM
same,GI50,[55],8.3 µM
same,TGI,[55],> 100 µM
same,GI50,[56],> 100 µM
same,TGI,[56],> 100 µM
O=c1[nH]c2c(ccc3cnccc32)c2c1CCC2,GI50,[1],0.344 µM
same,TGI,[1],29.9 µM
same,GI50,[2],0.155 µM
same,TGI,[2],0.553 µM
same,GI50,[3],0.5 µM
same,TGI,[3],> 53.5 µM
same,GI50,[4],0.279 µM
same,TGI,[4],> 100 µM
same,GI50,[5],0.172 µM
same,TGI,[5],0.532 µM
same,GI50,[6],0.308 µM
same,TGI,[6],> 100 µM
same,GI50,[7],0.248 µM
same,TGI,[7],0.708 µM
same,GI50,[8],0.241 µM
same,TGI,[8],0.677 µM
same,GI50,[9],0.376 µM
same,TGI,[9],> 100 µM
same,GI50,[10],1.47 µM
same,TGI,[10],> 100 µM
same,GI50,[11],0.356 µM
same,TGI,[11],1.91 µM
same,GI50,[12],0.267 µM
same,TGI,[12],> 45.8 µM
same,GI50,[13],0.357 µM
same,TGI,[13],> 100 µM
same,GI50,[14],0.272 µM
same,GI50,[15],0.431 µM
same,TGI,[15],> 100 µM
same,GI50,[16],0.247 µM
same,TGI,[16],0.808 µM
same,GI50,[17],0.447 µM
same,TGI,[17],> 100 µM
same,GI50,[18],0.258 µM
same,TGI,[18],0.923 µM
same,GI50,[19],0.657 µM
same,TGI,[19],> 100 µM
same,GI50,[20],0.332 µM
same,TGI,[20],> 35.7 µM
same,GI50,[21],0.282 µM
same,TGI,[21],> 33.2 µM
same,GI50,[22],0.35 µM
same,TGI,[22],1.62 µM
same,GI50,[23],0.312 µM
same,TGI,[23],0.951 µM
same,GI50,[24],0.317 µM
same,GI50,[25],0.361 µM
same,TGI,[25],> 100 µM
same,GI50,[26],0.307 µM
same,TGI,[26],1.38 µM
same,GI50,[27],0.386 µM
same,TGI,[27],> 100 µM
same,GI50,[28],0.252 µM
same,TGI,[28],0.897 µM
same,GI50,[29],0.394 µM
same,TGI,[29],> 20.3 µM
same,GI50,[30],0.376 µM
same,TGI,[30],> 28.9 µM
same,GI50,[31],0.277 µM
same,GI50,[32],0.426 µM
same,TGI,[32],> 100 µM
same,GI50,[33],0.277 µM
same,TGI,[33],11.7 µM
same,GI50,[34],0.726 µM
same,TGI,[34],> 100 µM
same,GI50,[35],0.461 µM
same,TGI,[35],> 100 µM
same,GI50,[36],0.331 µM
same,TGI,[36],> 100 µM
same,GI50,[37],0.288 µM
same,GI50,[57],0.244 µM
same,TGI,[57],1.18 µM
same,GI50,[39],0.333 µM
same,TGI,[39],37.3 µM
same,GI50,[40],0.362 µM
same,TGI,[40],> 100 µM
same,GI50,[41],0.219 µM
same,TGI,[41],0.585 µM
same,GI50,[42],0.221 µM
same,TGI,[42],0.673 µM
same,GI50,[43],0.306 µM
same,TGI,[43],0.84 µM
same,GI50,[44],0.196 µM
same,TGI,[44],0.517 µM
same,GI50,[45],1.7 µM
same,TGI,[45],> 100 µM
same,GI50,[46],0.365 µM
same,TGI,[46],> 100 µM
same,GI50,[47],0.356 µM
same,TGI,[47],> 100 µM
same,GI50,[48],0.324 µM
same,TGI,[48],1.4 µM
same,TGI,[49],> 100 µM
same,GI50,[50],0.308 µM
same,TGI,[50],1.84 µM
same,GI50,[51],0.352 µM
same,TGI,[51],> 100 µM
same,GI50,[52],0.331 µM
same,GI50,[53],0.33 µM
same,TGI,[53],> 100 µM
same,GI50,[54],0.245 µM
same,TGI,[54],0.833 µM
same,GI50,[55],0.214 µM
same,TGI,[55],0.622 µM
same,GI50,[56],0.243 µM
same,TGI,[56],0.67 µM
